Measured values published in US20120004230A1, “IMIDAZOLE DERIVATIVES” (priority 2006, published 2012).
Like-named read-outs stand apart in the source and are kept apart here.

Biological target: T1, TAAR1 (Mus musculus, UniProt Q923Y8)
T1 construct: expressed in transfected cells; host or cells: HEK293 cells (ATCC # CRL-1573), stably transfected with a pIRESneo2 expression plasmid; membranes prepared from them
Assay: Radioligand binding to TAAR1, membranes of stably transfected HEK293 cells
Description: For the construction of expression plasmids, the coding sequences of human, rat and mouse TAAR 1 were amplified from genomic DNA essentially as described by Lindemann et al. (2005) Genomics 85, 372-385. The Expand High Fidelity PCR System (Roche Diagnostics) was used with 1.5 mM Mg^2F and purified PCR products were cloned into pCR2.1-TOPO cloning vector (Invitrogen) following the instructions of the manufacturer. PCR products were subcloned into the pIRESneo2 vector (BD Clontech, Palo Alto, Calif.), and expression vectors were sequence verified before introduction in cell lines.
HEK293 cells (ATCC # CRL-1573) were cultured essentially as described in Lindemann et al. (2005) Genomics 85, 372-385. For the generation of stably transfected cell lines, HEK293 cells were transfected with the pIRESneo2 expression plasmids containing the TAAR coding sequences (described above) with Lipofectamine 2000 (Invitrogen) according to the instructions of the manufacturer, and 24 hours post transfection, the culture medium was supplemented with 1 mg/ml G418 (Sigma, Buchs, Switzerland). After a culture period of about 10 days, clones were isolated, expanded and tested for responsiveness to trace amines (all compounds purchased from Sigma) with the cAMP Biotrak Enzyme immunoassay (EIA) System (Amersham) following the non-acetylation EIA procedure provided by the manufacturer.
Cells at confluence were rinsed with ice-cold phosphate buffered saline without Ca^2+ and Mg^2+ containing 10 mM EDTA and pelleted by centrifugation at 1000 rpm for 5 minutes at 4° C. The pellet was then washed twice with ice-cold phosphate buffered saline and the cell pellet was frozen immediately by immersion in liquid nitrogen and stored until use at −80° C. The cell pellet was then suspended in 20 ml HEPES-NaOH (20 mM), pH 7.4 containing 10 mM EDTA, and homogenized with a Polytron (PT 3000, Kinematica) at 10,000 rpm for 10 seconds. The homogenate was centrifuged at 48,000×g for 30 minutes at 4° C. and the pellet resuspended in 20 ml HEPES-NaOH (20 mM), pH 7.4 containing 0.1 mM EDTA (buffer A), and homogenized with a Polytron at 10,000 rpm for 10 seconds. The homogenate was then centrifuged at 48,000×g for 30 minutes at 4° C. and the pellet resuspended in 20 ml buffer A, and homogenized with a Polytron at 10,000 rpm for 10 seconds. Protein concentration was determined by the method of Pierce (Rockford, Ill.). The homogenate was then centrifuged at 48,000×g for 10 minutes at 4° C., resuspended in HEPES-NaOH (20 mM), pH 7.0 including MgC12 (10 mM) and CaCl2 ([…]) (buffer B) at 200 μg protein per ml and homogenized with a Polytron at 10,000 rpm for 10 seconds.
Binding assay was performed at 4° C. in a final volume of 1 ml, and with an incubation time of 30 minutes. The radioligand [^3H]-rac-2-(1,2,3,4-tetrahydro-1-naphthyl)-2-imidazoline was used at a concentration equal to the calculated Kd value of 60 nM to give a total binding at around 0.1% of the total added radioligand concentration, and a specific binding which represented approximately 70-80% of the total binding. Non-specific binding was defined as the amount of [^3H]-rac-2-(1,2,3,4-tetrahydro-1-naphthyl)-2-imidazoline bound in the presence of the appropriate unlabelled ligand (10 μM). Competing ligands were tested in a wide range of concentrations ([…]). […] Each experiment was performed in duplicate. All incubations were terminated by rapid filtration through UniFilter-96 plates (Packard Instrument Company) and glass filter GF/C, pre-soaked for at least 2 hours in polyethylenimine 0.3%, and using a Filtermate 96 Cell Harvester (Packard Instrument Company). The tubes and filters were then washed 3 times with 1 ml aliquots of cold buffer B. Filters were not dried and soaked in Ultima gold (45 μl/well, Packard Instrument Company) and bound radioactivity was counted by a TopCount Microplate Scintillation Counter (Packard Instrument Company).

[1] = mouse TAAR1, radioligand [3H]-rac-2-(1,2,3,4-tetrahydro-1-naphthyl)-2-imidazoline at 60 nM, 4° C., 30 minutes, read-out: Ki (μM) mouse

T1 sequence (Q923Y8 whole entry): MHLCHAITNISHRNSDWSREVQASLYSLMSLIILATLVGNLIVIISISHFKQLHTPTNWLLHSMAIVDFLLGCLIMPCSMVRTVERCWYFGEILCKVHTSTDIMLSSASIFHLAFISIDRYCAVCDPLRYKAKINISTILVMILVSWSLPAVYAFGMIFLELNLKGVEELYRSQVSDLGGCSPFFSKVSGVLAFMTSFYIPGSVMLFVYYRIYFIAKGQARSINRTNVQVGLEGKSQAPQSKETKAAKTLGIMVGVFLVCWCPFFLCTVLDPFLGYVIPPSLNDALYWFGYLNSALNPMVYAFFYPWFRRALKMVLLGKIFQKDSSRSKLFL

SMILES | Ki [µM] | Ki [1] [µM] | also measured
Fc1cccc(CCc2cnc[nH]2)c1 [Example 12, 4-[2-(3-Fluoro-phenyl)-ethyl]-1H-imidazole] | 0.0097 |  | 
COc1ccccc1CCc1cnc[nH]1 [Example 8, 4-[2-(2-Methoxy-phenyl)-ethyl]-1H-imidazole] | 0.0843 |  | 
COc1cccc(CCc2cnc[nH]2)c1 [Example 14, 4-[2-(3-Methoxy-phenyl)-ethyl]-1H-imidazole] | 0.0606 |  | 
Clc1cccc(OCc2cnc[nH]2)c1Cl [Example 20, 4-(2,3-Dichloro-phenoxymethyl)-1H-imidazole] |  | 0.043 | 
c1ccc2cc(SCc3c[nH]cn3)ccc2c1 [Example 47, 4-(Naphthalen-2-ylsulfanylmethyl)-1H-imidazole] |  | 0.0103 | 
Clc1cc(Cl)cc(CCc2cnc[nH]2)c1 [Example 17, 4-[2-(3,5-Dichloro-phenyl)-ethyl]-1H-imidazole] | 0.0019 |  | 
Fc1cccc(OCc2cnc[nH]2)c1F [Example 35, 4-(2,3-Difluoro-phenoxymethyl)-1H-imidazole] |  | 0.0889 | 
c1ccc2c(c1)CCCC2C1=NCCN1 (racemic) [[^3H]-rac-2-(1,2,3,4-tetrahydro-1-naphthyl)-2-imidazoline, reference compound] |  |  | Kd (radioligand used at a concentration equal to its calculated Kd, TAAR1 species not given): 60 nM
FC(F)(F)c1cccc(CCc2cnc[nH]2)c1 [Example 13, 4-[2-(3-Trifluoromethyl-phenyl)-ethyl]-1H-imidazole] | 0.0106 |  | 
CCC(Cc1cnc[nH]1)c1ccccc1 (stereo not drawn) [Example 1, 4-(2-Phenyl-butyl)-1H-imidazole] | 0.0609 |  | 
Clc1cccc(SCc2cnc[nH]2)c1Cl [Example 42, 5-(2,3-Dichloro-phenylsulfanylmethyl)-1-imidazole] |  | 0.0041 | 
Clc1ccc(OCc2cnc[nH]2)cc1Cl [Example 36, 4-(3,4-Dichloro-phenoxymethyl)-1H-imidazole] |  | 0.0227 | 
Fc1cc(OCc2cnc[nH]2)ccc1Cl [Example 37, 4-(4-Chloro-3-fluoro-phenoxymethyl)-1H-imidazole] |  | 0.0802 | 
c1ncc(COc2ccc3ccoc3c2)[nH]1 [Example 39, 5-(Benzofuran-6-yloxymethyl)-1H-imidazole] |  | 0.0684 | 
Clc1ccccc1CCc1cnc[nH]1 [Example 5, 4-[2-(2-Chloro-phenyl)-ethyl]-1H-imidazole] | 0.0059 |  | 
Clc1ccc(CCc2cnc[nH]2)cc1 [Example 16, 4-[2-(4-Chloro-phenyl)-ethyl]-1H-imidazole] | 0.0172 |  | 
Clc1cccc(CCc2cnc[nH]2)c1 [Example 11, 4-[2-(3-Chloro-phenyl)-ethyl]-1H-imidazole] | 0.0025 |  | 
Cc1[nH]cnc1CSc1ccc(Cl)cc1 [Example 46, 4-(4-Chloro-phenylsulfanylmethyl)-5-methyl-1H-imidazole] |  | 0.0146 | 
